# Where two headings read alike, the source gives them in different places. Non-standard residues stand in square brackets, D forms with d. No end group written: not given here. *: point of attachment. Biotin = O=C1N[C@H]2[C@H](CS[C@H]2CCCCC(=O)*)N1
# What was measured:
# [1] = target: DnaK (Escherichia coli, UniProt P0A6Y8); conditions: 1 μg DnaK; biotin-labeled peptide
# [2] = target: Hsp70 (Homo sapiens, UniProt P0DMV8); conditions: nitrocellulose membrane-bound protein; 10 μg/ml peptide
# [3] = target: GroEL (Escherichia coli, UniProt P0A6F5); conditions: nitrocellulose membrane-bound protein; 10 μg/ml peptide
# [4] = tested on: E. coli LPS; conditions: nitrocellulose membrane-bound LPS
# [5] = tested on: LPS from S. typhimurium; conditions: nitrocellulose membrane-bound LPS
# [6] = target: E. coli DnaK aa583-615, hinge region between helices D and E (Escherichia coli, UniProt P0A6Y8); conditions: 5 μg fragment; 10 μg/mL biotin-labeled peptide
# Source text: (§1) A control strip was stained with amido black 10B to verify the presence of all DnaK fragments on the nitrocellulose sheet.
# [7] = target: E. coli DnaK aa397-439, conventional peptide binding pocket (Escherichia coli, UniProt P0A6Y8); conditions: non-specific binding; 10 μg/mL biotin-labeled peptide
# Source text: as §1
# [8] = tested on: E. coli strains (including TG-1, or K-12)
# [9] = target: T1, recombinant E. coli DnaK (Escherichia coli, UniProt P0A6Y8); assay: EnzChek ATPase assay, recombinant DnaK; assay type: biochemical; conditions: 50 molar equivalents of peptide; 22° C., 30 min; UV absorbance at 360 nm
# T1 construct: purchased StressGen, Victoria, Canada
# Source text: To determine whether the proline-rich antibacterial peptides that were predicted to bind to DnaK between the peptide binding pocket and the C-terminus would interfere with ATPase activity, a recently developed continuous spectrophotometric (colorimetric) ATPase activity assay [Rieger, C. E. et al, (1997) Anal. Biochem. 246: 86-95] was used. This assay uses using 2-amino-6-mercapto-7-methylpurine ribonucleoside (MESG)/purine nucleoside phosphorylase reaction to detect the released inorganic phosphate (EnzChek ATPase determination kit from Molecular Probes, Eugene, USA). Assays were performed in 500 μL tubes in duplicates in a total volume of 125 μL containing 20 mM tris(hydroxymethyl)amino-ethane (Tris)-HCl, pH 7.6, 1 mM MgCl2, […] (except in assaying the baseline), 5 μg of DnaK (recombinant DnaK protein from StressGen,Victoria, Canada) and 50 molar equivalents of the particular peptide, MESG and the purine nucleoside phosphorylase recommended by the manufacturer. After incubation at 22° C. for 30 min, 100 μL of the reaction mixture was transferred to a quartz cuvette and the ultraviolet (UV) absorbance at 360 nm was measured. The assay was run in a miniaturized form to increase the concentration and therefore the enzymatic activity of DnaK. In a larger, standard format the ATPase activity of DnaK without peptide addition was 6 pmol/μg/min, in line with the published data of 4 pmol/μg/min [Liberek, K. et al, (1991) Proc. Natl. Acad. Sci. USA 88: 2874-2878].
# [10] = tested on: β-galactosidase activities of live E. coli TG-1 cells; assay type: cell-based
# [11] = tested on: alkaline phosphatase activities of live E. coli TG-1 cells; assay type: cell-based
# [12] = tested on: E. coli D22; conditions: Otvos et al, 2000, Protein Science; cited from earlier work
# [13] = target: E. coli DnaK fragment aa583-615 (D-E helix hinge) (Escherichia coli, UniProt P0A6Y8); assay: Fluorescence polarization with synthetic DnaK fragment aa583-615; assay type: binding; conditions: Tris HCl at pH 8.0; for binding to E. coli D-E helix hinge region aa583-615 at high concentration: 128 μM fragment
# Procedure: The binding of the synthetic DnaK fragments to their fluorescein-labeled pyrrhocoricin counterparts was also assessed in solution, by fluorescence polarization [Lundblad, J. R. et al, (1996) Mol. Endocrinol. 10: 607-612]. For these experiments, the unlabeled peptides were serially diluted in PBS (pH 7.4) or 0.1 M Tris-HCl (pH 8.0) containing 0.1 M ethylene-diamine-tetraacetic acid (EDTA) in 50 μL final volume in 6×50 mm disposable glass borosilicate tubes. The fluoresceinated peptides were added to each tube in a 50 μL aliquot to a final concentration of 1 nM and tubes were incubated at 37° C. for 5 minutes. The extent of fluorescence anisotropy was measured on a Beacon 2000 fluorescence polarization instrument (PanVera, Madison, Wis.) and calculated as millipolarization values. The filters used were 485 nm excitation and 535 nm emission with 3 nm band width. Non-linear curve fitting was done by using a dose-response logistical transition [y=a0+a1/(1+x/a2)^a^3] and the Levenberg-Marquardt Algorithm within the SlideWrite software package. The provided Kd value (a2 coefficient) was calculated by the program.
# To quantitatively characterize the pyrrhocoricin—D-E helix interaction, the complete binding curves were measured for E. coli DnaK fragments aa583-615 and aa588-615, both of SEQ ID NO: 10.
# [14] = target: T2, S. aureus DnaK 554-585 (D-E helix fragment) (Staphylococcus aureus, UniProt P45554); assay: Fluorescence polarization with S. aureus DnaK D-E helix fragment; assay type: binding; conditions: Tris HCl at pH 8.0
# T2 sequence (P45554 554-585 limits assumed): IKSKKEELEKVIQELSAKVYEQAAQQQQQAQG
# [15] = target: blocked E. coli DnaK fragment aa591-615 (Escherichia coli, UniProt P0A6Y8); assay type: binding
# [16] = Hoffmann et al, 1999; cited from earlier work
# [17] = peptide 32 μg/mL, live E. coli TG-1, three independent assays
# [18] = peptide 32 μg/mL, live E. coli TG-1, four independent assays
# E. coli DnaK fragment aa583-615 (D-E helix hinge), sequence (P0A6Y8 584-616): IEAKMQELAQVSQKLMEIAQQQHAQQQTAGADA
# T1 sequence (P0A6Y8 whole entry): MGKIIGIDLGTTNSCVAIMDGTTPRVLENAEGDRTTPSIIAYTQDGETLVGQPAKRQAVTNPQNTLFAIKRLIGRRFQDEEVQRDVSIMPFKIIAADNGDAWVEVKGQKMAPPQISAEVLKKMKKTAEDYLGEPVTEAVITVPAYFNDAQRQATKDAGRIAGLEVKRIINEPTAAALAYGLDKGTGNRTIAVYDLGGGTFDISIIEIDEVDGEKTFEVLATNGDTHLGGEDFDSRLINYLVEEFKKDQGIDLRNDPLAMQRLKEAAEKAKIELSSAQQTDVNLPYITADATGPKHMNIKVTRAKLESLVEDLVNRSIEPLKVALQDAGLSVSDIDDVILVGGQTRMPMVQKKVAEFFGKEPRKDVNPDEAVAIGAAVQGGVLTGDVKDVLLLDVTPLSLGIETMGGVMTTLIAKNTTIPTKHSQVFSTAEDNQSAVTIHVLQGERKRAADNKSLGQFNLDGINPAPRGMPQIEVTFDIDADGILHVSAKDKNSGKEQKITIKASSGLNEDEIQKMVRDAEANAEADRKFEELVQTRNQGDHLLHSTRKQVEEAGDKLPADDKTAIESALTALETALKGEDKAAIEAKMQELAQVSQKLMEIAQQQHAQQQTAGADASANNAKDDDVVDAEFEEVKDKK
# E. coli DnaK aa397-439, conventional peptide binding pocket, sequence (P0A6Y8 397-439): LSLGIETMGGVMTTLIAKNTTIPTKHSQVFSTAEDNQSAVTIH
# blocked E. coli DnaK fragment aa591-615, sequence (P0A6Y8 592-616 limits assumed): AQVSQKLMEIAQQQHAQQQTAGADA
# E. coli DnaK aa583-615, hinge region between helices D and E, sequence (P0A6Y8 584-616 limits assumed): as the sequence (P0A6Y8 584-616) above
# GroEL, sequence (P0A6F5 2-548 limits assumed): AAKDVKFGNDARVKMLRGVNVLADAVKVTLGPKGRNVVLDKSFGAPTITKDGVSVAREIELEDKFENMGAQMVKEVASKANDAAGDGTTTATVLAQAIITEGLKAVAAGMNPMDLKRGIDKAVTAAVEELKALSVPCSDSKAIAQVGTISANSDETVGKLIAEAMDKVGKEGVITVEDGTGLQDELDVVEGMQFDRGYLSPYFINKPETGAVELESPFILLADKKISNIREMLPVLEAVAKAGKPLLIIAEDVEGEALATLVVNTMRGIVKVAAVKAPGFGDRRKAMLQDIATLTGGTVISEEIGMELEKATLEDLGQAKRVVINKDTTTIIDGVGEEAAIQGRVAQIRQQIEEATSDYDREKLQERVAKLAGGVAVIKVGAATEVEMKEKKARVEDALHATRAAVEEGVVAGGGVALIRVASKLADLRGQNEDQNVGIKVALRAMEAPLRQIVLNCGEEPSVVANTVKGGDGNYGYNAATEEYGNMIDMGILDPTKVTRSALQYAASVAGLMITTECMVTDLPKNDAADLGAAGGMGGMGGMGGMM
# DnaK, sequence (P0A6Y8 whole entry): as the sequence (P0A6Y8 whole entry) above
# Hsp70, sequence (P0DMV8 whole entry): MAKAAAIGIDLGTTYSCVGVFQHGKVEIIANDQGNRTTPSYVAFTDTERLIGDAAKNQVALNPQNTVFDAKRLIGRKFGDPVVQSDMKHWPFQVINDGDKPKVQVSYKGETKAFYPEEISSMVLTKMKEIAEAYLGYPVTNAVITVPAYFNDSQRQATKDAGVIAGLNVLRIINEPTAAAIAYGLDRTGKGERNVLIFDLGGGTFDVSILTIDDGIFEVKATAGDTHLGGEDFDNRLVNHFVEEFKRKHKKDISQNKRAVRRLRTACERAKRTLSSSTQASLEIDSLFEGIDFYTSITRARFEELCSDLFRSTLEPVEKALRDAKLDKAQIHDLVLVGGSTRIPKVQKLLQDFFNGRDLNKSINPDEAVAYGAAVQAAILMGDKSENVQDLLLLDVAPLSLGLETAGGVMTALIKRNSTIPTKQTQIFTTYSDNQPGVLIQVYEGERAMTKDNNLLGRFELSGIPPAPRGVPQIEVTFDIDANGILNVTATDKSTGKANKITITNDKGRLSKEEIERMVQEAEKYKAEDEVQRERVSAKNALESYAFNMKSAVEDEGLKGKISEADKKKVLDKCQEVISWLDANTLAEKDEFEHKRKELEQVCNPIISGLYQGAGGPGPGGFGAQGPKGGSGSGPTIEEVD
substance,measurement,setting,value
Biotin-KVDKGSYLPRPTPPRPIYNRN [biotin-K-pyrrhocoricin],binding to DnaK on the peptide blot,[1],bound strongly
same,binding to Hsp70 on the peptide blot,[2],very weak peptide binding
same,binding to GroEL on the peptide blot,[3],very weak peptide binding
same,binding to E. coli LPS on Western-blot,[4],did not label LPS bands
same,binding to S. typhimurium LPS on Western-blot,[5],did not label LPS bands
same,dot blot binding to D-E helix hinge fragment,[6],bound
same,dot blot binding to peptide-binding pocket fragment,[7],similarly bound
same,concentration range killing E. coli strains,[8],submicromolar range
Cecropin A: membrane-active antimicrobial peptide; purchased from Bachem (KWKLFKKIEKVGQNIRDGIIKAGPAVAVVGQATQIAK),effect on ATPase activity of recombinant DnaK,[9],did not influence
Conantokin G,Inhibition of enzymatic activity after 1 hour (%) β-Galactosidase,[10],(−10) ± 10%
same,Inhibition of enzymatic activity after 1 hour (%) Alkaline Phosphatase,[11],(−3) ± 23%
D-pyrrhocoricin: SEQ ID NO: 3 with all amino acids in the D configuration; inactive analog ([dV][dD][dK]G[dS][dY][dL][dP][dR][dP][dT][dP][dP][dR][dP][dI][dY][dN][dR][dN]),Inhibition of enzymatic activity after 1 hour (%) β-Galactosidase,[10]; [17],(−4) ± 43%
same,Inhibition of enzymatic activity after 1 hour (%) Alkaline Phosphatase,[11]; [18],(−6) ± 16%
same,effect on ATPase activity of recombinant DnaK,[9],negligible effect
same,killing of E. coli D22,[12],completely inactive
Magainin 2: antibacterial peptide that kills bacteria by disintegrating the membrane; from Bachem (GIGKFLHSAKKFGKAFVGEIMNS),Inhibition of enzymatic activity after 1 hour (%) β-Galactosidase,[10]; [17],(−50) ± 55%
same,Inhibition of enzymatic activity after 1 hour (%) Alkaline Phosphatase,[11]; [18],(−23) ± 38%
same,effect on ATPase activity of recombinant DnaK,[9],did not influence
NTDGSTDYGILQINSR,binding to E. coli D-E helix hinge region aa583-615,[13]; labeled peptide 1 nM,failed to bind
N—F-apidaecin: apidaecin with fluorescein label attached at the N-terminus,binding to E. coli D-E helix hinge region aa583-615 at high concentration,[13],some binding
same,binding to S. aureus D-E helix fragment,[14],failed to bind
N—F-drosocin: drosocin with fluorescein label attached at the N-terminus (fluorescein-KGKPRPYSPRPTSHPRPIRV),binding to E. coli D-E helix hinge region aa583-615 at high concentration,[13],some binding
same,binding to blocked E. coli DnaK fragment aa591-615,[15],failed to bind
same,binding to S. aureus D-E helix fragment,[14],failed to bind
"native glycosylated drosocin: native drosocin glycopeptide with a disaccharide in the mid-chain position (GKPRPYSPRPTSHPRPIRV; also: O-glycosylated disaccharide in mid-chain position; UniProt P36193 22-40, looked up)",antibacterial activity when injected into mice,[16],no antibacterial activity

# Reference: US20060240494A1, “Biocidal molecules, macromolecular targets and methods of production and use” (priority 2000, published 2006)
